Measurements reported in ChEMBL document CHEMBL5661975, “Discovery and pharmacologic characterization of CP-724,714, a selective ErbB2 tyrosine kinase inhibitor” (Cancer Res, 2007).
≈ marks a conversion by molar mass, not a printed value. Calls of active or inactive are those of the source. No cut-off for these calls is given here.

Assays:
MDA-MB-453 [1] = assay: Antiproliferative activity against human MDA-MB-453 cells assessed as inhibition of cell growth; type: functional, cell-based
FRE [2] = assay: Antitumor activity against human erbB2 transfected FRE cells xenografted bearing female athymic nu-nu CD-1 mouse assessed as tumor erbB2 receptor phosphorylation at 3.125 to 100 mg/kg, po administration by ELISA method; type: functional, organism-based; conditions: dose 3.125-100 mg/kg
BT-474 [3] = assay: Antitumor activity against human BT-474 high expressing erbB2 cells xenografted bearing female athymic nu-nu CD-1 mouse assessed as inhibition in tumor regression at 100 mg/kg, po bid administrated for 8 to 40 days relative to control; type: functional; conditions: time 8-40 day
BT-474 [4] = assay: Antitumor activity against human BT-474 expressing erbB2 cells xenografted bearing female athymic nu-nu CD-1 mouse assessed as inhibition in tumor growth at 50 to 100 mg/kg, po bid administration and measured at 4 day; type: functional, organism-based; conditions: dose 50-100 mg/kg
[5] = Antiproliferative activity against human SUM190PT cells assessed as inhibition of cell growth; type: functional, cell-based
[6] = target: Receptor tyrosine-protein kinase erbB-2 (Homo sapiens, UniProt P04626); assay: Inhibition of human recombinant intracellular domain of erbB2; type: cell-based
BT-474 [7] = assay: Inhibition of colony formation in human BT-474 cells overexpressing erbB2 assessed as decrease in colony formation at 1 micromol/L by methanolic crystal violet staining relative to control; type: functional; conditions: dose 1 µmol/L
ZR-75-1 = assay: Antiproliferative activity against human ZR-75-1 cells assessed as inhibition of cell growth; type: functional, cell-based
BT-474 [8] = assay: Antitumor activity against human BT-474 cells expressing erbB2 xenografted bearing female athymic nu-nu CD-1 mouse assessed as inhibition in tumor growth at 100 mg/kg, po bid administration and measured at 40 day relative to control; type: functional; conditions: BT-474, 960 h
MCF7 = assay: Antiproliferative activity against human MCF7 cells assessed as inhibition of cell growth; type: functional, cell-based
MDA-MB-453 [9] = assay: Antitumor activity against human MDA-MB-453 high expressing erbB2 cells xenografted bearing female athymic nu-nu CD-1 mouse assessed as inhibition in tumor growth at 100 mg/kg, po bid administrated for 8 to 40 days relative to control; type: functional; conditions: time 8-40 day
BT-474 [10] = assay: Antitumor activity against human BT-474 expressing erbB2 cells xenografted bearing female athymic nu-nu CD-1 mouse assessed as reduction in tumor erbB2 receptor phosphorylation at 1 to 30 mg/kg, po bid administration and measured at 40 day by ELISA method relative to control; type: functional; set-up: scale not given: the % may be the effect or the level left; conditions: dose 1-30 mg/kg
MDA-MB-468 = assay: Antiproliferative activity against human MDA-MB-468 cells assessed as inhibition of cell growth; type: functional, cell-based
MDA-MB-453 [11] = assay: Antitumor activity against human MDA-MB-453 expressing erbB2 cells xenografted bearing female athymic nu-nu CD-1 mouse assessed as inhibition in tumor growth at 50 mg/kg, po bid administration and measured at 29 day relative to control; type: functional; conditions: MDA-MB-453, 696 h
BT-474 [12] = assay: Antitumor activity against human BT-474-erbB2 cells xenografted bearing female athymic nu-nu CD-1 mouse assessed as reduction in tumor erbB2 receptor phosphorylation, po administration by ELISA method; type: functional, organism-based
BT-474 [13] = assay: Antitumor activity against human BT-474 expressing erbB2 cells xenografted bearing female athymic nu-nu CD-1 mouse assessed as tumor regression at 100 mg/kg, po bid administration and measured at 9 day relative to control; type: functional
BT-20 = assay: Antiproliferative activity against human BT-20 cells assessed as inhibition of cell growth; type: functional, cell-based
EFM-19 = assay: Antiproliferative activity against human EFM-19 cells assessed as inhibition of cell growth; type: functional, cell-based
[14] = Average plasma concentration (0 to 4 hrs) in human erbB2 transfected FRE cells xenografted bearing female athymic nu-nu CD-1 mouse at 50 mg/kg, po QD administrated for 8 to 40 days by liquid chromatography-tandem mass spectrometry analysis; type: ADME, organism-based; conditions: in vivo, time 8-40 day
[15] = Toxicity in human erbB2 transfected FRE cells xenografted bearing female athymic nu-nu CD-1 mouse assessed as mortality at 50 mg/kg, po QD administrated for 8 to 40 days; type: organism-based; conditions: in vivo, time 8-40 day
[16] = Antiproliferative activity against human KPL-1 cells assessed as inhibition of cell growth; type: functional, cell-based
FRE [17] = assay: Antitumor activity against human erbB2 transfected FRE cells xenografted bearing female athymic nu-nu CD-1 mouse assessed as tumor erbB2 receptor phosphorylation at 25 mg/kg, po administration and measured at 4 hrs by ELISA method; type: functional, organism-based
MDA-MB-453 [18] = assay: Antitumor activity against human MDA-MB-453 high expressing erbB2 cells xenografted bearing female athymic nu-nu CD-1 mouse assessed as inhibition in tumor regression at 100 mg/kg, po bid administrated for 8 to 40 days relative to control; type: functional; conditions: time 8-40 day
[19] = Antitumor activity against human erbB2 transfected FRE cells xenografted bearing female athymic nu-nu CD-1 mouse assessed as reduction in tumor erbB2 receptor phosphorylation at 25 mg/kg, po and measured at 30 mins by ELISA method relative to control; type: functional; set-up: scale not given: the % may be the effect or the level left; conditions: 0.5 h
BT-474 [20] = assay: Antitumor activity against human BT-474 high expressing erbB2 cells xenografted bearing female athymic nu-nu CD-1 mouse assessed as reduction in tumor phospho-Akt level at 30 mg/kg, po after 0.5 hrs administration by western blot analysis relative to control; type: functional; set-up: scale not given: the % may be the effect or the level left
HCC1419 = assay: Antiproliferative activity against human HCC1419 cells assessed as inhibition of cell growth; type: functional, cell-based
BT-474 [21] = assay: Induction of cell cycle arrest in Her2-amplified human BT-474 cells overexpressing erbB2 assessed as increase in G1 phase at 1 micromol/L incubated for 24 hrs by flow cytometry analysis relative to control; type: functional; conditions: dose 1 µmol/L, at 1 µM
SK-BR-3 = assay: Antiproliferative activity against human SK-BR-3 cells assessed as inhibition of cell growth; type: functional, cell-based
BT-474 [22] = assay: Antitumor activity against human BT-474 high expressing erbB2 cells xenografted bearing female athymic nu-nu CD-1 mouse assessed as reduction in tumor phospho-Erk level at 30 to 100 mg/kg, po after 0.5 hrs administration by western blot analysis relative to control; type: functional; set-up: scale not given: the % may be the effect or the level left; conditions: dose 30-100 mg/kg
MDA-MB-175-VII = assay: Antiproliferative activity against human MDA-MB-175-VII cells assessed as inhibition of cell growth; type: functional, cell-based
[23] = Antitumor activity against human erbB2 transfected FRE cells xenografted bearing female athymic nu-nu CD-1 mouse assessed as reduction in tumor erbB2 receptor phosphorylation, po administration by ELISA method; type: functional, organism-based
BT-474 [24] = assay: Antiproliferative activity against human BT-474 cells assessed as inhibition of cell growth; type: functional, cell-based
MDA-MB-453 [25] = assay: Antitumor activity against human MDA-MB-453 expressing erbB2 cells xenografted bearing female athymic nu-nu CD-1 mouse assessed as inhibition in tumor growth at 25 mg/kg, po bid administration and measured at 29 day relative to control; type: functional; conditions: MDA-MB-453, 696 h

Chain of Receptor tyrosine-protein kinase erbB-2 (P04626 whole entry, the tested form may be a part): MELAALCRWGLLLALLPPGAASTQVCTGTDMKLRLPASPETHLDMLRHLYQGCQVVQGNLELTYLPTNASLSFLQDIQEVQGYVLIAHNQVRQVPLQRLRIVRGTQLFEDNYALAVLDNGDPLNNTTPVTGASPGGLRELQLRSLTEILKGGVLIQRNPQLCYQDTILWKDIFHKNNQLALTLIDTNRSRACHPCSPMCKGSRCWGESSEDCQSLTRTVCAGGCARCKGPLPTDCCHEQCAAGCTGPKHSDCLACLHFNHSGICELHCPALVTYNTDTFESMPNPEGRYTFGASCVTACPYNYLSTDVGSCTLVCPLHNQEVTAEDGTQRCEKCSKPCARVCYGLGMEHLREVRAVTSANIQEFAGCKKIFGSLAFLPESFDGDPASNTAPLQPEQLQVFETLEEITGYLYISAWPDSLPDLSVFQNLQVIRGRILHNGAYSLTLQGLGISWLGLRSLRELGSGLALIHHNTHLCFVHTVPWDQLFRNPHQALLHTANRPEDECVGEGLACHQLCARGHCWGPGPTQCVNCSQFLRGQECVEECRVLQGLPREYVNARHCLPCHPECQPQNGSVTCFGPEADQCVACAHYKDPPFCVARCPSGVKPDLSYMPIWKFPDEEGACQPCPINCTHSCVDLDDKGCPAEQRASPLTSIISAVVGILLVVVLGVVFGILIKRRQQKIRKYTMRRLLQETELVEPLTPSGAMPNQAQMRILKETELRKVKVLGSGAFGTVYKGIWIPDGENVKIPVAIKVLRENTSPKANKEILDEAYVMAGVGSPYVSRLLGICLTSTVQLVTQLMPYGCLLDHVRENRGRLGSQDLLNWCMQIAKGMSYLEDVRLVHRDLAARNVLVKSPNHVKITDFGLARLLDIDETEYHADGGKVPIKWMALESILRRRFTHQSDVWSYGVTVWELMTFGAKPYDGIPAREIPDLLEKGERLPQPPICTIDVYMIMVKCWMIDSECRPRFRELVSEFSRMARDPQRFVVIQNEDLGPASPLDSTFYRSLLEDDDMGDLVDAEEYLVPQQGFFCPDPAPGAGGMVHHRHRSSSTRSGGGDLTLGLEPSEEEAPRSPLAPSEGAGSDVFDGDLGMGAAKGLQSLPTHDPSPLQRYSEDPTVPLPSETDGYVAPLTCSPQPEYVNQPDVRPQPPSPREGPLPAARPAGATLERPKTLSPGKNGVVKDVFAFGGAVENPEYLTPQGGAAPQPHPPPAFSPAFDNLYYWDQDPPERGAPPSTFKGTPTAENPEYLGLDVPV

Structure (SMILES): COCC(=O)NC/C=C/c1ccc2ncnc(Nc3ccc(Oc4ccc(C)nc4)c(C)c3)c2c1 [CP-724714]
- IC50 (MDA-MB-453 [1]): 2500 nM
- Activity (FRE [2]): Active
- inhibition in vivo at 100 mg/kg (BT-474 [3]): 83%
- inhibition (BT-474 [4]): Active
- IC50 [5]: 710 nM
- IC50 [6]: 10 nM
- inhibition at 1 µM (BT-474 [7]): > 80%
- IC50 (ZR-75-1): > 10000 nM
- inhibition in vivo at 100 mg/kg (BT-474 [8]): 100%
- IC50 (MCF7): 9800 nM
- inhibition in vivo at 100 mg/kg (MDA-MB-453 [9]): 83%
- Activity (BT-474 [10]): 10%
- IC50 (MDA-MB-468): > 10000 nM
- inhibition in vivo at 50 mg/kg (MDA-MB-453 [11]): 66%
- EC50 (BT-474 [12]): 0.77 µg/mL (≈ 1.64 µM)
- Activity (BT-474 [13]): ~6%
- IC50 (BT-20): > 10000 nM
- IC50 (EFM-19): > 10000 nM
- Cave [14]: 1300 ng/mL
- Activity [15]: Non-Toxic
- IC50 [16]: > 10000 nM
- Activity (FRE [17]): inactive
- inhibition in vivo at 100 mg/kg (MDA-MB-453 [18]): 83%
- Activity [19]: ~75%
- Activity (BT-474 [20]): 42%
- IC50 (HCC1419): 1000 nM
- Activity (BT-474 [21]): 83%
- IC50 (SK-BR-3): 950 nM
- Activity (BT-474 [22]): ~75%
- IC50 (MDA-MB-175-VII): 810 nM
- EC50 [23]: 1 µg/mL (≈ 2.13 µM)
- IC50 (BT-474 [24]): 250 nM
- inhibition in vivo at 25 mg/kg (MDA-MB-453 [25]): ~19%
